This note sets out measurements from US20080182848A1, “Novel Process” (priority 2005, published 2008).

This data set is described as follows: solubility in the mobile phase (isopropanol). The note with it: organic solvent or mixture; crude material; isopropanol as the mobile phase. Type of data set: physicochemical. The protocol:
Racemic zopiclone was subjected to preparative chromatography using Chiralcel® OD as the stationery phase and isopropanol as the mobile phase. Under these conditions the crude material has a good solubility in the mobile phase (>1.0 g/liter) and the typical retention time for the R-isomer is 12.3 minutes and for the S-isomer is 17.8 minutes. Some physico-chemical properties of the S-zopiclone obtained are set out in table 1.

In general, solubility refers to how much of the substance goes into solution per volume. Regarding `CN1CCN(C(=O)OC2c3nccnc3C(=O)N2c2ccc(Cl)cn2)CC1` (racemic) [Racemic zopiclone, (±) of 6-(5-chloro-2-pyridinyl)-6,7-dihydro-7-oxo-5H-pyrrolo-[3,4b]-pyrazin-5-yl-4-methylpiperazine-1-caboxylate], the solubility was greater than 1000 µg/mL.
